Drawing on the NIST ThermoML archive (doi:10.1021/acs.jced.5b00950), this text covers refractive index and mass density for 3 compounds.

± gives the expanded uncertainty stated by the source.

The nature of data set [1]: refractive index (Na D-line) (dimensionless). Conditions: 298.2 K; 101.33 kPa; Liquid; Standard Abbe refractometry.
The conditions of data set [2]: 298.2 K; 101.33 kPa; Liquid; Vibrating tube method.

Broadly, the refractive index is the speed of light in vacuum divided by its phase velocity in the sample. The mass density is mass per unit of volume.

On to `CCCC(=O)O` [butanoic acid], for which the refractive index in data set [1] is reported as 1.3964 ± 0.002. Moreover, the mass density in data set [2] is 952.8 ± 2 kg/m3.
On to `CC(=O)Oc1ccccc1` [phenyl ethanoate], for which, in data set [1], the refractive index was found to be 1.5012 ± 0.002. Further, in data set [2], the mass density worked out at 1073 ± 2 kg/m3.
As to `O` [water], the refractive index in data set [1] stood at 1.3324 ± 0.002. Also, in data set [2], the mass density is on record as 999.9 ± 2 kg/m3.
